Measured values: the NIST ThermoML archive (doi:10.1021/acs.jced.8b00326)
± gives the expanded uncertainty stated by the source.

Experiment: mn = molality of the nth substance listed, in mol/kg
Details: 100 kPa, Liquid, Alternating current cell with electrodes

CCCCCCCCCCCCCCCC[n+]1ccccc1.[Cl-] [cetylpyridinium chloride] + O
electrical conductivity (293.15 K, m1 = 0.0002): 0.00277 ± 0.0012 S/m | electrical conductivity (293.15 K, m1 = 0.0004): 0.00503 ± 0.0012 S/m | electrical conductivity (293.15 K, m1 = 0.0006): 0.0073 ± 0.0012 S/m | electrical conductivity (293.15 K, m1 = 0.0008): 0.00906 ± 0.0011 S/m | electrical conductivity (293.15 K, m1 = 0.001): 0.0102 ± 0.001 S/m | electrical conductivity (293.15 K, m1 = 0.0012): 0.0112 ± 0.001 S/m | electrical conductivity (293.15 K, m1 = 0.0014): 0.012 ± 0.001 S/m | electrical conductivity (293.15 K, m1 = 0.0016): 0.0128 ± 0.001 S/m | electrical conductivity (293.15 K, m1 = 0.0018): 0.0138 ± 0.001 S/m | electrical conductivity (293.15 K, m1 = 0.002): 0.0145 ± 0.001 S/m | electrical conductivity (298.15 K, m1 = 0.0002): 0.00283 ± 0.0013 S/m | electrical conductivity (298.15 K, m1 = 0.0004): 0.00513 ± 0.0013 S/m | electrical conductivity (298.15 K, m1 = 0.0006): 0.00755 ± 0.0013 S/m | electrical conductivity (298.15 K, m1 = 0.0008): 0.00982 ± 0.0011 S/m | electrical conductivity (298.15 K, m1 = 0.001): 0.0109 ± 0.001 S/m | electrical conductivity (298.15 K, m1 = 0.0012): 0.0118 ± 0.001 S/m | electrical conductivity (298.15 K, m1 = 0.0014): 0.0128 ± 0.001 S/m | electrical conductivity (298.15 K, m1 = 0.0016): 0.0139 ± 0.001 S/m | electrical conductivity (298.15 K, m1 = 0.0018): 0.0149 ± 0.001 S/m | electrical conductivity (298.15 K, m1 = 0.002): 0.0158 ± 0.0011 S/m | electrical conductivity (303.15 K, m1 = 0.0002): 0.00302 ± 0.0013 S/m | electrical conductivity (303.15 K, m1 = 0.0004): 0.00574 ± 0.0013 S/m | electrical conductivity (303.15 K, m1 = 0.0006): 0.00831 ± 0.0013 S/m | electrical conductivity (303.15 K, m1 = 0.0008): 0.011 ± 0.0013 S/m | electrical conductivity (303.15 K, m1 = 0.001): 0.0134 ± 0.0012 S/m | electrical conductivity (303.15 K, m1 = 0.0012): 0.0148 ± 0.0011 S/m | electrical conductivity (303.15 K, m1 = 0.0014): 0.016 ± 0.0011 S/m | electrical conductivity (303.15 K, m1 = 0.0016): 0.0172 ± 0.0011 S/m | electrical conductivity (303.15 K, m1 = 0.0018): 0.0184 ± 0.0011 S/m | electrical conductivity (303.15 K, m1 = 0.002): 0.0194 ± 0.001 S/m | electrical conductivity (308.15 K, m1 = 0.0002): 0.00337 ± 0.0014 S/m | electrical conductivity (308.15 K, m1 = 0.0004): 0.00645 ± 0.0014 S/m | electrical conductivity (308.15 K, m1 = 0.0006): 0.00954 ± 0.0014 S/m | electrical conductivity (308.15 K, m1 = 0.0008): 0.0126 ± 0.0014 S/m | electrical conductivity (308.15 K, m1 = 0.001): 0.0155 ± 0.0012 S/m | electrical conductivity (308.15 K, m1 = 0.0012): 0.017 ± 0.0011 S/m | electrical conductivity (308.15 K, m1 = 0.0014): 0.0183 ± 0.0011 S/m | electrical conductivity (308.15 K, m1 = 0.0016): 0.0196 ± 0.0011 S/m | electrical conductivity (308.15 K, m1 = 0.0018): 0.021 ± 0.0011 S/m | electrical conductivity (308.15 K, m1 = 0.002): 0.0223 ± 0.0011 S/m

O [water] + CCCCCCCCCCCCCCCC[n+]1ccccc1.[Cl-]
electrical conductivity (293.15 K, m2 = 0): 0.0005 S/m | electrical conductivity (298.15 K, m2 = 0): 0.00053 S/m | electrical conductivity (303.15 K, m2 = 0): 0.00057 S/m | electrical conductivity (308.15 K, m2 = 0): 0.00058 S/m
